# Data from PubChem BioAssay (NCI).
# Where “and” joins values, the source holds several entries; their conditions need not be identical. Equal values may be shown once.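 Where inhibition never reached the appropriate level, the endpoint shown equals the highest concentration tested. Otherwise, values were interpolated linearly from a five-concentration, 48-hour dose response in 96-well plates. GI50 = concentration required for 50% inhibition of growth. Definition used: TGI = concentration required for complete inhibition of growth.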
# Tests used:
# Assay in all cases: NCI tumour cell line growth inhibition, 48 h
# DMS 114 small cell lung = system: DMS 114 small cell lung
# RXF-631 renal = system: RXF-631 renal
# SNB-78 CNS = system: SNB-78 CNS
# HOP-18 NSCLC = system: HOP-18 NSCLC
# DMS 273 small cell lung = system: DMS 273 small cell lung
# LXFL 529 NSCLC = system: LXFL 529 NSCLC
# T-47D breast = system: T-47D breast
# XF 498 CNS = system: XF 498 CNS
# MDA-N = system: MDA-N
compound,measurement,setting,value
Cc1ccccc1NC(=O)C(=O)C(c1cnc2ccc([N+](=O)[O-])cc2n1)[N+](=O)[O-] (centres undefined),TGI,DMS 114 small cell lung,> 100 µM
same,TGI,RXF-631 renal,> 100 µM
same,TGI,SNB-78 CNS,> 100 µM
same,TGI,HOP-18 NSCLC,> 100 µM
same,TGI,DMS 273 small cell lung,> 100 µM
O=C1C(=O)N(C(=O)c2ccc(Cl)c(Cl)c2)c2ccc(Cl)cc21,TGI,DMS 114 small cell lung,66 µM
same,TGI,SNB-78 CNS,> 100 µM
same,TGI,HOP-18 NSCLC,> 100 µM
same,TGI,DMS 273 small cell lung,> 100 µM
same,TGI,LXFL 529 NSCLC,> 100 µM
C#CCN=C(N/N=C/c1ccc([N+](=O)[O-])o1)NS(=O)(=O)c1cc(C)c(Cl)cc1SCC(N)=O,GI50,T-47D breast,18.8 µM
same,TGI,T-47D breast,34.9 µM
O=C1OCc2c1cc(F)cc2[N+](=O)[O-],GI50,T-47D breast,> 100 µM
same,TGI,T-47D breast,> 100 µM
CN(C)C(=O)/N=c1\ss/c(=N\C(=S)N(C)C)n1-c1ccccc1,GI50,DMS 114 small cell lung,0.0334 µM
same,TGI,RXF-631 renal,> 100 µM
same,TGI,SNB-78 CNS,> 100 µM
same,GI50,HOP-18 NSCLC,> 100 µM
same,TGI,HOP-18 NSCLC,> 100 µM
same,GI50,DMS 273 small cell lung,30 µM
same,TGI,DMS 273 small cell lung,> 100 µM
same,TGI,LXFL 529 NSCLC,> 88.4 µM
same,TGI,XF 498 CNS,> 85.4 µM
COc1ccc(/C(C)=C(\c2ccc(Cl)cc2)c2ccc(OCCN3CCCC3)cc2)cc1F,GI50,T-47D breast,3.3 µM
same,TGI,T-47D breast,7.87 µM
O=[N+]([O-])c1cc(CCl)ccc1CCl,TGI,MDA-N,4.23 µM
same,TGI,T-47D breast,1.03 µM
CN=C1Nc2ccc(Cl)cc2C(c2ccccc2)=NN1C,TGI,DMS 114 small cell lung,> 100 µM
same,TGI,RXF-631 renal,> 100 µM
same,TGI,SNB-78 CNS,> 100 µM
same,TGI,DMS 273 small cell lung,> 100 µM
same,TGI,LXFL 529 NSCLC,> 100 µM
same,TGI,XF 498 CNS,> 100 µM
Cc1cccc2c(N=Nc3ccc(S(N)(=O)=O)cc3)c(O)[nH]c12,GI50,T-47D breast,> 25 µM
same,TGI,T-47D breast,> 25 µM
O=C(O)c1ccc2c(c1Nc1ccccc1)C(=O)c1ccccc1C2=O,GI50,T-47D breast,45.6 µM
same,TGI,T-47D breast,> 100 µM
N/C(=N\N=C\c1cccs1)NO,TGI,DMS 114 small cell lung,> 100 µM
same,TGI,RXF-631 renal,> 100 µM
same,TGI,SNB-78 CNS,> 100 µM
same,TGI,HOP-18 NSCLC,> 100 µM
same,TGI,DMS 273 small cell lung,> 100 µM
same,TGI,LXFL 529 NSCLC,> 100 µM
same,TGI,XF 498 CNS,> 100 µM
COc1cc(C#N)cc(OC)c1OCCOCCOc1c(OC)cc(C#N)cc1OC,GI50,T-47D breast,21.7 µM
same,TGI,T-47D breast,> 100 µM
C#CCOCn1cnc2c(=S)nc[nH]c21,TGI,DMS 114 small cell lung,> 100 µM
same,TGI,RXF-631 renal,> 100 µM
same,TGI,DMS 273 small cell lung,> 100 µM
same,TGI,LXFL 529 NSCLC,> 100 µM
same,TGI,XF 498 CNS,> 100 µM
NC(CNO)C(=O)O (centres undefined),TGI,MDA-N,> 100 µM
same,TGI,T-47D breast,> 100 µM
CCc1ccccc1NC(=O)CCc1n[nH]c(=S)o1,TGI,DMS 114 small cell lung,> 100 µM
same,TGI,SNB-78 CNS,> 100 µM
same,TGI,HOP-18 NSCLC,> 100 µM
same,TGI,DMS 273 small cell lung,> 100 µM
same,TGI,LXFL 529 NSCLC,> 100 µM
Clc1cc(Cl)c(Cl)c(-c2nc(-c3cccnc3)cs2)c1,GI50,T-47D breast,12.7 µM
same,TGI,T-47D breast,65.4 µM
O=c1cc(-c2ccc(Cl)cc2)[nH]c2ncccc12,GI50,MDA-N,8.26 µM
same,TGI,MDA-N,26.1 µM
same,TGI,T-47D breast,> 100 µM
O=C(Nc1n[nH]c2nc(-c3ccco3)ccc12)C1CC1,GI50,T-47D breast,> 25 µM
same,TGI,T-47D breast,> 25 µM
CN(C)CCCN(c1nc(C(Cl)(Cl)Cl)ns1)c1nc(C(Cl)(Cl)Cl)ns1,GI50,T-47D breast,2.98 µM
same,TGI,T-47D breast,10.5 µM
CCCc1cc2cc(-n3nc(C)c4c3CC(C)(C)CC4=O)cc(NC3CCC(O)CC3)c2c(=O)[nH]1 (centres undefined),GI50,T-47D breast,0.0994 µM
same,TGI,T-47D breast,> 100 µM
COc1ccc2c(c1)CCc1c(-c3noc4c3CCc3cc(OC)ccc3-4)noc1-2,TGI,MDA-N,> 100 µM
same,TGI,T-47D breast,> 100 µM
Cn1ncc2c(/N=C/c3cccs3)[nH]c(=S)nc21,GI50,T-47D breast,35.9 µM
same,TGI,T-47D breast,> 100 µM
CCC1=C(C)/C(=C/c2[nH]c(CBr)c(CC)c2C)N=C1CBr,TGI,DMS 114 small cell lung,27.8 µM
same,TGI,RXF-631 renal,> 100 µM
same,TGI,HOP-18 NSCLC,24.7 µM
same,TGI,DMS 273 small cell lung,> 100 µM
same,TGI,LXFL 529 NSCLC,17.9 µM
O=c1c2ccccc2nc(-c2ccc(Br)cc2)n1NC1OC(CO)C(O)C(O)C1O (centres undefined),TGI,DMS 114 small cell lung,> 100 µM
same,TGI,RXF-631 renal,> 100 µM
same,TGI,SNB-78 CNS,> 100 µM
same,TGI,HOP-18 NSCLC,> 100 µM
same,TGI,DMS 273 small cell lung,> 100 µM
same,TGI,LXFL 529 NSCLC,> 100 µM
CN[C@]12CC3(C=CC(=O)C=C3)O[C@@]1(Cc1ccc(OC)cc1)N(C)C(=O)N2,GI50,T-47D breast,2.12 µM
same,TGI,T-47D breast,7.23 µM
Cc1cc(C)c(O)c(Cc2cccc(Cc3cc(C)cc(C)c3O)c2O)c1,TGI,MDA-N,> 100 µM
same,TGI,T-47D breast,> 100 µM
COc1cc(/C=C2\[C@H]3c4c(c(OC)c(C)c(OC)c4OC)C[C@@H](C(=O)N2Cc2ccccc2)N3C(=O)OC(C)C)c(OC)c(C)c1OC,TGI,DMS 114 small cell lung,> 100 µM
same,TGI,RXF-631 renal,> 100 µM
same,TGI,HOP-18 NSCLC,> 100 µM
same,TGI,DMS 273 small cell lung,> 100 µM
same,TGI,LXFL 529 NSCLC,> 100 µM
O=C1/C(=C\C(Cl)=C/c2ccc([N+](=O)[O-])cc2)SC(=S)N1CCc1ccc(O)cc1,GI50,T-47D breast,1.64 µM
same,TGI,T-47D breast,4.66 µM
COc1cc2nc(Sc3c([N+](=O)[O-])ncn3C)[nH]c2cc1OC,TGI,DMS 114 small cell lung,25.8 µM
same,TGI,SNB-78 CNS,> 100 µM
same,TGI,HOP-18 NSCLC,> 100 µM
same,TGI,LXFL 529 NSCLC,32 µM
same,TGI,XF 498 CNS,49.2 µM
COc1cc2ccc3c4c(OC)cc(OC)c(OC)c4c(=O)n(C)c3c2cc1OC,GI50,DMS 114 small cell lung,1.87 µM
same,TGI,DMS 114 small cell lung,16.7 µM and 26.6 µM
same,GI50,RXF-631 renal,0.495 µM
same,TGI,SNB-78 CNS,32.5 µM
same,TGI,HOP-18 NSCLC,> 100 µM
same,GI50,DMS 273 small cell lung,22.2 µM
same,GI50,LXFL 529 NSCLC,0.766 µM
same,TGI,LXFL 529 NSCLC,2.86 µM and > 26.8 µM
same,GI50,XF 498 CNS,5.27 µM
same,TGI,XF 498 CNS,7.16 µM and 61.2 µM
N.N.N.N.N.N.[I-].[Os],GI50,SNB-78 CNS,> 100 µM
same,TGI,SNB-78 CNS,> 100 µM
same,GI50,HOP-18 NSCLC,> 100 µM
same,TGI,HOP-18 NSCLC,> 100 µM
same,GI50,DMS 273 small cell lung,> 100 µM
same,TGI,DMS 273 small cell lung,> 100 µM
same,GI50,LXFL 529 NSCLC,> 100 µM
same,TGI,LXFL 529 NSCLC,> 100 µM
COc1cc(/C=C2\CN(C)C/C(=C\c3cc(OC)c(OC)c(OC)c3)C2=O)cc(OC)c1OC,GI50,T-47D breast,1.12 µM
same,TGI,T-47D breast,5.02 µM
COc1ccc(-c2cc(=O)c3c(OC)c(OC)c(OC)c(OC)c3o2)cc1OC,TGI,MDA-N,> 100 µM
same,TGI,T-47D breast,70.6 µM
CCOC(=O)c1ccc(N(CCOS(C)(=O)=O)CCOS(C)(=O)=O)cc1C,GI50,MDA-N,57.8 µM
same,TGI,MDA-N,> 100 µM
same,GI50,T-47D breast,16.6 µM
same,TGI,T-47D breast,62.1 µM
COc1cc(/C=C/C(=O)c2ccc(Nc3ncnc4ccccc34)cc2)cc(OC)c1,GI50,T-47D breast,6.2 µM
same,TGI,T-47D breast,39.4 µM
CCOC(=O)/C(=C/c1ccc([N+](=O)[O-])cc1)C(=O)c1ccccc1,GI50,T-47D breast,2.64 µM
same,TGI,T-47D breast,8.35 µM
Cc1n[nH]c(=S)n1/N=C/c1ccc(F)c(Oc2ccccc2)c1,GI50,T-47D breast,> 100 µM
same,TGI,T-47D breast,> 100 µM
CCCCCCCC/C=C/CCCCCCCC1=NC(C)(C)CN1C(C)C,GI50,T-47D breast,1.62 µM
same,TGI,T-47D breast,3.27 µM
C=C1C(=O)O[C@H]2[C@H]1CC/C(COC(=O)CCCCCCCCC(=O)OC/C1=C/CC[C@@]3(C)O[C@H]3[C@H]3OC(=O)C(=C)[C@@H]3CC1)=C\CC[C@@]1(C)O[C@@H]21,GI50,T-47D breast,2.16 µM
same,TGI,T-47D breast,6.2 µM
Oc1ccc(CNCc2ccccc2)c2cccnc12,TGI,MDA-N,> 100 µM
COc1ccc(-c2cnc3ccnn3c2-c2cc(OC)c(OC)c(OC)c2)cc1,GI50,T-47D breast,> 100 µM
same,TGI,T-47D breast,> 100 µM
